Source: the supplement of paper PMC10307832

Columns and labels:
Assay in all cases: relative viability (nuclei count vs DMSO), 5 days (fraction); higher = more cells survive
XMD13-2 + Luminespib = compound: C1CC1C(=O)NC2=NNC3=C2C=CC(=C3)C4=CC(=CC=C4)C(=O)NC5CC5 [XMD13-2] + CCNC(=O)c1noc(-c2cc(C(C)C)c(O)cc2O)c1-c1ccc(CN2CCOCC2)cc1 [Luminespib] (partner 0.01 µM)
Procedure, shortened: (§1)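 Lung cancer cell lines were seeded in 1536-well plates and dosed by pin tool the next day, with either a single drug or a fixed anchor-drug dose combined with five library-drug doses (not always all listed) spaced in √10 steps. Five days later, one step fixed the cells and stained their nuclei (final 0.05% Triton X-100, 1% formaldehyde, 1 ug/ml Hoechst), and nuclei were counted on 4× images. Relative viability is the nuclei count in treated wells divided by the count in vehicle wells, and each value is the median of duplicate plates.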

XMD13-2 + Pemetrexed = compound: C1CC1C(=O)NC2=NNC3=C2C=CC(=C3)C4=CC(=CC=C4)C(=O)NC5CC5 [XMD13-2] + Nc1nc2[nH]cc(CCc3ccc(C(=O)N[C@@H](CCC(=O)O)C(=O)O)cc3)c2c(=O)[nH]1 [Pemetrexed] (partner 0.2 µM)
Procedure, shortened: as §1

ALW-II-49-7 + Bortezomib = compound: Cc1ccc(C(=O)Nc2cccc(C(F)(F)F)c2)cc1Nc1cncc(C(N)=O)c1 [ALW-II-49-7] + CC(C)C[C@H](NC(=O)[C@H](Cc1ccccc1)NC(=O)c1cnccn1)B(O)O [Bortezomib] (partner 0.002 µM)
Procedure, shortened: as §1

Dasatinib + Bortezomib = compound: Cc1nc(Nc2ncc(C(=O)Nc3c(C)cccc3Cl)s2)cc(N2CCN(CCO)CC2)n1 [Dasatinib] + CC(C)C[C@H](NC(=O)[C@H](Cc1ccccc1)NC(=O)c1cnccn1)B(O)O [Bortezomib] (partner 0.002 µM)
Procedure, shortened: as §1

Row | Cell Line | relative viability (XMD13-2 + Luminespib; first compound 0.05 µM) | relative viability (XMD13-2 + Luminespib; first compound 0.1581 µM) | relative viability (XMD13-2 + Luminespib; first compound 0.5 µM) | relative viability (XMD13-2 + Luminespib; first compound 1.581 µM) | relative viability (XMD13-2 + Luminespib; first compound 5 µM) | relative viability (XMD13-2 + Pemetrexed; first compound 0.05 µM) | relative viability (XMD13-2 + Pemetrexed; first compound 0.1581 µM) | relative viability (XMD13-2 + Pemetrexed; first compound 0.5 µM) | relative viability (XMD13-2 + Pemetrexed; first compound 1.581 µM) | relative viability (XMD13-2 + Pemetrexed; first compound 5 µM) | relative viability (ALW-II-49-7 + Bortezomib; first compound 0.08 µM) | relative viability (ALW-II-49-7 + Bortezomib; first compound 0.253 µM) | relative viability (ALW-II-49-7 + Bortezomib; first compound 0.8 µM) | relative viability (ALW-II-49-7 + Bortezomib; first compound 2.53 µM) | relative viability (ALW-II-49-7 + Bortezomib; first compound 8 µM) | relative viability (Dasatinib + Bortezomib; first compound 0.005 µM) | relative viability (Dasatinib + Bortezomib; first compound 0.01581 µM) | relative viability (Dasatinib + Bortezomib; first compound 0.05 µM) | relative viability (Dasatinib + Bortezomib; first compound 0.1581 µM) | relative viability (Dasatinib + Bortezomib; first compound 0.5 µM)
1 | NCI-H2126 | 0.899 | 0.977 | 0.957 | 0.832 | 0.92 | 0.748 | 0.656 | 0.634 | 0.704 | 0.647 | 1.09 | 1.17 | 1.2 | 1.08 | 1.17 | 1.08 | 1.07 | 1.16 | 0.988 | 0.587
2 | NCI-H2228 | 0.144 | 0.218 | 0.166 | 0.129 | 0.178 | 0.354 | 0.315 | 0.339 | 0.31 | 0.27 | 1.06 | 0.636 | 0.975 | 0.915 | 1.16 | 0.645 | 0.988 | 0.888 | 0.691 | 0.47
3 | NCI-H2347 | 0.405 | 0.342 | 0.486 | 0.54 | 0.791 | 0.458 | 0.443 | 0.446 | 0.453 | 0.45 | 0.539 | 1.28 | 1.08 | 0.23 | 0.566 | 0.732 | 0.857 | 0.929 | 0.324 | 0.368
4 | NCI-H2405 | 0.853 | 0.634 | 0.578 | 0.641 | 0.633 | 1.18 | 1.02 | 1.11 |  | 1.07 | 1.05 | 0.886 | 1.09 | 0.954 | 0.89 | 0.879 | 0.956 | 0.616 | 0.475 | 0.306
5 | NCI-H3122 | 0.102 | 0.0949 | 0.106 | 0.105 | 0.0867 | 0.193 | 0.195 | 0.199 | 0.199 | 0.195 | 1.09 | 1.06 | 1.11 | 1.08 | 1.11 | 0.988 | 0.94 | 1.02 | 1.05 | 0.815
6 | PC-3 [JPC-3] | 0.681 | 0.661 | 0.64 | 0.776 | 0.782 | 1.23 | 1.04 | 1.14 |  | 1.12 | 0.746 | 0.777 | 0.758 | 0.862 | 0.825 | 0.839 | 0.733 | 0.925 | 0.818 | 0.465
7 | PC-14 | 0.133 | 0.192 | 0.118 | 0.151 | 0.154 | 0.14 | 0.131 | 0.118 | 0.148 | 0.13 | 0.88 | 0.872 | 0.83 | 0.758 | 0.857 | 0.822 | 0.96 | 0.969 | 0.585 | 0.35
8 | RERF-LC-KJ | 1.32 | 1.29 | 1.22 | 1.14 | 1.1 | 0.478 | 0.425 | 0.476 | 0.385 | 0.463 | 0.861 | 1.36 | 1.06 | 0.813 | 1.14 | 1.1 | 0.765 | 0.965 | 0.955 | 0.77
9 | SK-LU-1 | 0.217 | 0.239 | 0.227 | 0.194 | 0.211 | 0.997 | 0.964 | 1.01 | 0.977 | 0.948 | 0.741 | 1.25 | 1.17 | 1.06 | 0.662 | 0.954 | 0.777 | 0.726 | 0.33 | 0.406
10 | SW 1573 | 0.276 | 0.239 | 0.308 | 0.188 | 0.213 | 0.831 | 0.847 | 0.788 | 0.79 | 0.814 | 1.01 | 0.983 | 1.14 | 1.01 | 0.959 | 0.875 | 0.881 | 0.861 | 0.618 | 0.395
